According to PMC11647681, “Discovery of Non-Covalent Inhibitors for SARS-CoV-2 PLpro: Integrating Virtual Screening, Synthesis, and Experimental Validation” (ACS Medicinal Chemistry Letters, 2024):
≈ marks a conversion by molar mass, not a printed value. Where “and” joins values, the source holds several entries; their conditions need not be identical. Equal values may be shown once. Read-outs that look alike come from different tables or passages of the source.

Columns and labels:
in vitro [1] = conditions: chlorocebus sabaeus
in vitro [2] = conditions: human
SARS-CoV-2 PLpro = SARS-CoV-2 PLpro (Severe acute respiratory syndrome coronavirus 2, UniProt P0DTD1); assay: SARS-CoV-2 PLpro inhibition assay (enzymatic, LKGG-AMC substrate); assay type: biochemical; conditions: for Ki: Hanes-Woolf plot; for Ki / inhibition mechanism: kinetic characterization; for IC50: enzymatic assay
[3] = rat, microsomes, 0.5 h; cited from earlier work
[4] = mouse, microsomes, 0.5 h; cited from earlier work
PLpro = conditions: cited from earlier work; for IC50: PLpro

Row | SMILES | CC50 (in vitro [1]) | CC50 (in vitro [2]) | IC50 (SARS-CoV-2 PLpro) | solubility (physchem) | other results
1 | Cn1ccc(-c2ccc3nccc(N[C@@H]4CCNC4)c3n2)cc1=O [Compound 1, Cn1ccc(cc1=O)-c1ccc2nccc(NC3CC[NH2+]C3)c2n1] | 23.8 µM | > 50 µM | 73.6 µM | 195 µM (≈ 62.7 µg/mL) | Ki (SARS-CoV-2 PLpro): 22.4 ± 6.7 µM; inhibition mechanism (SARS-CoV-2 PLpro): competitive; inhibition test in absence and presence of Triton (aggregation check) (SARS-CoV-2 PLpro; with or without 0.01% Triton): no significant differences
2 | CCN(CCNc1nc2ccccc2[nH]1)Cc1cc(Cl)ccc1O [Compound 2, CCN(CCNc1nc2ccccc2[nH]1)Cc1cc(ccc1O)Cl] | – | – | 102 µM | – | –
3 | CCN(CC)Cc1cc(Nc2nc3ccccc3[nH]2)ccc1O [Compound 3, CCN(CC)Cc1cc(ccc1O)Nc1nc2ccccc2[nH]1] | – | – | 127 µM | – | –
4 | NCCNc1nccc2[nH]c(-c3ccc(F)c(F)c3)nc12 [Compound 4, NCCNc1nccc2[nH]c(nc12)-c1ccc(c(c1)F)F] | – | – | 130 µM | – | –
5 | O=C1CN(C(=O)CNC(=O)c2ccc3c(c2)B(O)OC3)CCN1 [Compound 5, O[B]1OCc2ccc(cc21)C(=O)NCC(=O)N1CCNC(=O)C1] | – | – | 137 µM | – | –
6 | O=C(NCc1cccc(F)c1)c1ncc2ccccn12 [Compound 6, Fc1cccc(CNC(=O)c2ncc3ccccn23)c1] | – | – | 194 µM | – | –
7 | CN1CCC(Nc2ccnc3ccc(-c4ccc(C(=O)NCCO)nc4)nc23)CC1 [Compound 82, O=C(NCCO)C1=NC=C(C2=NC3=C(N=CC=C3NC4CCN(C)CC4)C=C2)C=C1] | > 50 µM | > 50 µM | 79.8 ± 20.4 µM | 200 µM (≈ 81.3 µg/mL) | –
8 | CS(=O)(=O)c1cccc(-c2ccc3nccc(N4CCNCC4)c3n2)c1 [Compound 83, O=S(C1=CC=CC(C2=NC3=C(N=CC=C3N4CCNCC4)C=C2)=C1)(C)=O] | 43.6 µM | > 50 µM | 54.8 µM | 180 µM (≈ 66.3 µg/mL) | Microsomal stability, % remaining after 30 min [3]: 50.41%; Microsomal stability, % remaining after 30 min [4]: 60.24%
9 | CNC(=O)c1ccc(-c2ccc3nccc(NC4CCNCC4)c3n2)cn1 [Compound 84, O=C(NC)C1=NC=C(C2=NC3=C(N=CC=C3NC4CCNCC4)C=C2)C=C1] | 47.3 µM | > 50 µM | 39.5 ± 4.62 µM | 175 µM (≈ 63.4 µg/mL) | –
10 | COc1ccc(-c2ccc3nccc(N[C@@H]4CCNC4)c3n2)cn1 [Compound 85, COC1=NC=C(C2=NC3=C(N=CC=C3N[C@@H]4CCNC4)C=C2)C=C1] | 7.47 µM | 26.3 µM | 15.1 ± 2.19 µM | 190 µM (≈ 61.1 µg/mL) | fold improvement in PLpro activity (SARS-CoV-2 PLpro; 85 compared with 1): 5 fold; Ki (SARS-CoV-2 PLpro): 22.9 µM and 20.1 µM; inhibition mechanism (SARS-CoV-2 PLpro): competitive; inhibition test in absence and presence of CHAPS detergent (aggregation check) (SARS-CoV-2 PLpro; with and without 1 mM CHAPS): No significant difference; Microsomal stability, % remaining after 30 min [3]: 62.68%; Microsomal stability, % remaining after 30 min [4]: 66.61%
12 | CCn1ccc(-c2cc(-c3cnn(C)c3)cc([C@@H](C)NC(=O)c3cc(OCCN(C)C)ccc3C)c2)n1 [Jun12682] | – | – | – | – | protease, deubiquitinase, and deISGylase activity of PLpro (PLpro): inhibited
13 | S=C(SSC(=S)N1CCOCC1)N1CCOCC1 [RI173] | – | – | – | – | IC50 (PLpro): 0.2 µM
